This note sets out measurements from patent publication US20190374481A1, “ADMINISTRATION REGIMEN FOR A PHARMACEUTICAL PATCH COMPRISING LIDOCAINE AND DICLOFENAC” (TEIKOKU SEIYAKU CO., LTD., priority 2017, published 2019).

SMILES strings stand for the structures.

One experiment has as its system CFA-hindpaw inflammation. Kind of experiment: CFA-hindpaw inflammation, paw pressure test (CFA-PPT), intraperitoneal injection. The experiment is classed as in vivo, rat. The protocol: An interaction study was performed as a single dose study in the CFA-hindpaw inflammation, paw pressure test.
In comparative example 1 and inventive examples 1 to 4 described below, a compound or combination of compounds was administered by intraperitoneal injection (FIGS. 1 to 9).
The pain was measured by pressing a pointer on the inflamed paw. The pointer exerts a force, increasing at a constant rate, monitored by a linear scale. Pain is deemed to be perceived one the rat starts to withdraw the paw. This value (withdrawal threshold in gram) is the pressure at which the animal feels pain (cut-off 450 g). Efficacy of the test compounds is expressed as a percent change of withdrawal threshold after compound administration to the pre-value (withdrawal threshold before compound administration).

Experiment [1] deals with CFA-induced edema of paw / mechanical-hyperalgesia. Kind of experiment: CFA-hindpaw inflammation, paw pressure test (CFA-PPT), topical application to the paw. It counts as in vivo, rat. As to the method:
In comparative example 2 and inventive examples 5 to 8 as described below, a compound or combination of compounds was administered topically to the paw by means of an ointment or solution (FIGS. 10 to 18).
The efficacy was tested when a compound or a compositions of compounds was administered topically as an ointment or a solution. The study was performed on male albino rats (150-180 g body weight) to which an edema of paw was induced by injection of Complete Freunds Adjuvant (CFA). CFA is a composition of inactivated and dried Myobacteria tuberculoses, emulsified in mineral oil which is used as an immunopotentiator causing a painful reaction that lasts 7-8 days after subcutaneous injection.
The studies of comparative example 2 and inventive examples 5 to 8 were performed according to the following procedure: 50 μL of CFA were injected sub plantar into the right hind paw, inducing mechanical-hyperalgesia after 24 hours. […]
The pain was measured by pressing a pointer on the inflamed paw. The pointer exerts a force, increasing at a constant rate, monitored by a linear scale. […] Efficacy of the test compounds is expressed as a percent change of withdrawal threshold after compound administration to the pre-value (withdrawal threshold before compound administration).

For `CCN(CC)CC(=O)Nc1c(C)cccc1C` [Lidocaine, 2-(diethylamino)-N-(2,6-dimethylphenyl)acetamide], the “efficacy in CFA-PPT when administered alone” value in the experiment on CFA-hindpaw inflammation (Lidocaine alone, dose range 10 mg/kg to 46.4 mg/kg ip) is recorded as “dose dependent efficacy”. Moreover, in experiment [1] (Lidocaine alone, 30 mg/ml to 60 mg/ml), the “efficacy in CFA-PPT when topically administered alone” value is reported as “dose dependent efficacy”.

With `O=C(O)Cc1ccccc1Nc1c(Cl)cccc1Cl` [Diclofenac, 2-(2,6-dichloranilino) phenylacetic acid], the “efficacy in CFA-PPT when administered alone” value in the experiment on CFA-hindpaw inflammation (Diclofenac alone, dose range 21.5 mg/kg to 100 mg/kg ip) is on record as “dose dependent efficacy”. The “efficacy in CFA-PPT when topically administered alone” value in experiment [1] (Diclofenac alone, 40 mg/ml to 80 mg/ml) was “dose dependent efficacy”.
